According to patent publication US8518952B2, “6 substituted 2-heterocyclylamino pyrazine compounds as CHK-1 inhibitors” (Pfizer Inc., priority 2008, dated 2013):
Counter-ions that a name gives are not always drawn.

Key:
CHK1 (kinase domain) = molecular target: T1, CHK1 (kinase domain) (Homo sapiens, UniProt O14757); assay: CHK1 Ki determination, spectrophotometric coupled (pyruvate kinase/lactate dehydrogenase) assay; format: biochemical; details: CHK-1 kinase domain; 150 uM ATP, 125 uM Syntide 2
T1 construct: a solution containing 1 nM of CHK1 (kinase domain)
T1 sequence (O14757 9-265 limits assumed): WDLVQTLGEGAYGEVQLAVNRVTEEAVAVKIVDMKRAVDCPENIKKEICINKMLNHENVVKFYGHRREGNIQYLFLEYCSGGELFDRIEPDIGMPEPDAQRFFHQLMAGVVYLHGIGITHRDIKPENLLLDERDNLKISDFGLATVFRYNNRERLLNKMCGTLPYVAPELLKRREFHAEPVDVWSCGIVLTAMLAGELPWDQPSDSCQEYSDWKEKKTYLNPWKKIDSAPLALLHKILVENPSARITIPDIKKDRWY
Summary of the method: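 Ki values, or % inhibition where no Ki was obtained, come from a tight-binding fit that uses active enzyme concentration and the ATP Km. Rates were followed as NADH loss at 340 nm, with ADP production coupled via pyruvate kinase and lactate dehydrogenase. Reactions with ATP (150 uM) and Syntide 2 (125 uM) were started after the CHK1 kinase domain had stood with inhibitor for 15 min.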

Mia Paca-2 cells = assay: Histone H3 (Ser10) phosphorylation ELISA, abrogation of camptothecin-induced G2 arrest (CHK-1 cellular assay); format: cell-based; details: camptothecin 8 hrs, then compound with nocodozole 16 hours
Experimental: The Histone H3 phosphorylation ELISA assay detects cells entering mitosis and represents the primary in vitro cell-based assay used to measure the cellular potency of compounds in abrogating the G2 check point induced by DNA damage in HeLa cells or MiaPaCa cells. The candidate substances were assayed for potency in their ability to inhibit camptothecin-induced G2 arrest, as measured by an increase in Histone H3 phosphorylation on Ser10, a marker of entry into mitosis.
The PathScan Phospho-Histone H3 (Ser10) Sandwich ELISA kit was used (Cell Signaling, #7155) and the assay was performed according to manufacturer recommendations. Tissue culture plates were seeded with HeLa cells or MiaPaCa Cells and allowed to attach overnight. The cells were then treated with camptothecin to induce DNA damage for 8 hrs. Candidate substances or diluent were then added in the presence of nocodozole for 16 hours. Cells were then lysed with buffer from Assay Designs (#80-1114) supplemented with protease inhibitors and frozen overnight. The fresh whole cell lysates were then thawed and added to the ELISA plate with shaking for 3 hours. Between all subsequent steps plates were washed 4 times with PBST. Biotinylated phospho Histone H3 (ser10) detection antibody was added for 1 hour, followed by addition of horseradish peroxidase-linked streptavidin secondary antibody for 1 hour. Color development of the antibody was performed with addition of TMB substrate and incubation for 2 minutes on a plate shaker. Stop solution was added and plates were read with absorbance at 450 nm on a spectrophotometer. EC50 values were calculated by sigmoid curve fitting using a four-parameter analysis.
Under the “Ki” column, data entries in the format of “%” are percent inhibition data where no Ki data is available. Data entry under the “EC50” column with an * are data obtained using Mia Paca-2 cells rather than HeLa cells. Data is not available where noted as n/a.

[1] = Homo sapiens, Mia Paca-2 cells (entries marked *)
[2] = Homo sapiens, MIA PaCa-2, Mia Paca-2 cells (entries marked *)

| Ki (CHK1 (kinase domain)) | EC50 (Mia Paca-2 cells; [1]) | EC50 (Mia Paca-2 cells; [2]) | EC50 (Mia Paca-2 cells; Mia Paca-2 cells (entries marked *)) | Compound |
| --- | --- | --- | --- | --- |
| 34.3 nM | 686 nM | – | – | Cc1nn2c(-c3cncc(N[C@@H]4CCCNC4)n3)cnc2s1 [Example 120, 6-(2-methylimidazo[2,1-b][1,3,4]thiadiazol-5-yl)-N-[(3R)-piperidin-3-yl]pyrazin-2-amine] |
| 14 nM | 248 nM | – | – | C[C@H]1NCCC[C@H]1Nc1cncc(-c2cnc3cnccn23)n1 [Example 163, 6-(imidazo[1,2-a]pyrazin-3-yl)-N-[(2R,3R)-2-methylpiperidin-3-yl]pyrazin-2-amine] |
| 6.41 nM | 59.5 nM | – | – | COc1cc2c(cn1)ncn2-c1cncc(N[C@@H]2CCCNC2)n1 [Example 17, 6-(6-methoxy-1H-imidazo[4,5-c]pyridin-1-yl)-N-[(3R)-piperidin-3-yl]pyrazin-2-amine] |
| 1.49 nM | 125 nM | – | – | COc1ccc2ncn(-c3cncc(N[C@@H]4CCCNC4)n3)c2c1 [Example 142, 6-(6-methoxy-1H-benzimidazol-1-yl)-N-[(3R)-piperidin-3-yl]pyrazin-2-amine] |
| 17.9 nM | 626 nM | – | – | C[C@@H]1C[C@@H](Nc2cncc(-c3cnc4cc(C#N)ccn34)n2)CN1 [Example 189, 3-(6-{[(3R,5R)-5-methylpyrrolidin-3-yl]amino}pyrazin-2-yl)imidazo[1,2-a]pyridine-7-carbonitrile] |
| 3.4 nM | – | 75.5 nM | – | Nc1ccc2ncc(-c3cncc(N[C@@H]4CCCNC4)n3)n2c1 [Example 233, 3-{6-[(3R)-piperidin-3-ylamino]pyrazin-2-yl}imidazo[1,2-a]pyridin-6-amine] |
| 192 nM | – | 1110 nM | – | Cc1ncc(N[C@@H]2CCCNC2)nc1-c1cnc2ccccn12 [Example 247, 6-(imidazo[1,2-a]pyridin-3-yl)-5-methyl-N-[(3R)-piperidin-3-yl]pyrazin-2-amine] |
| 8.63 nM | – | 127 nM | – | Fc1ccc2ncc(-c3cncc(N[C@@H]4CCCNC4)n3)n2c1 [Example 87, 6-(6-fluoroimidazo[1,2-a]pyridin-3-yl)-N-[(3R)-piperidin-3-yl]pyrazin-2-amine] |
| 233 nM | – | 549 nM | – | CO[C@@H]1CCNC[C@H]1Nc1cncc(-c2cnc3ccccn23)n1 [Example 260, 6-(imidazo[1,2-a]pyridin-3-yl)-N-[(3R,4R)-4-methoxypiperidin-3-yl]pyrazin-2-amine (HCl salt)] |
| 6.8 nM | – | 67.9 nM | – | Fc1ccn2c(-c3cncc(N[C@@H]4CCCNC4)n3)cnc2c1 [Example 235, 6-(7-fluoroimidazo[1,2-a]pyridin-3-yl)-N-[(3R)-piperidin-3-yl]pyrazin-2-amine] |
| 9.2 nM | – | 76.8 nM | – | FC1(F)CCNCC1Nc1cncc(-c2cnc3ccc(Cl)cn23)n1 (stereo not drawn) [Example 230, 6-(6-chloroimidazo[1,2-a]pyridin-3-yl)-N-(4,4-difluoropiperidin-3-yl)pyrazin-2-amine] |
| 33.6 nM | 4210 nM | – | – | C[C@@H]1CNC[C@@H]1Nc1cncc(-c2cnc3ccc(C(C)(C)O)cn23)n1 [Example 14, 2-[3-(6-{[(3R,4R)-4-methylpyrrolidin-3-yl]amino}pyrazin-2-yl)imidazo[1,2-a]pyridin-6-yl]propan-2-ol] |
| 29.2 nM | 187 nM | – | – | CCCOC[C@@H]1C[C@@H](Nc2cncc(-c3cnc4ccccn34)n2)CN1 [Example 192, 6-(imidazo[1,2-a]pyridin-3-yl)-N-[(3R,5S)-5-(propoxymethyl)pyrrolidin-3-yl]pyrazin-2-amine] |
| 48.2 nM | 240 nM | – | – | C[C@@H]1CCNC[C@@H]1Nc1cncc(-c2cnn3ccccc23)n1 [Example 206, N-[(3R,4R)-4-methylpiperidin-3-yl]-6-(pyrazolo[1,5-a]pyridin-3-yl)pyrazin-2-amine] |
| 2.54 nM | – | 4.59 nM | – | COc1ccn2c(-c3cncc(N[C@H]4CNC[C@H]4C4CC4)n3)cnc2c1 [Example 211, N-[(3R,4R)-4-cyclopropylpyrrolidin-3-yl]-6-(7-methoxyimidazo[1,2-a]pyridin-3-yl)pyrazin-2-amine] |
| 5.51 nM | – | – | 86.8 nM | CO[C@H]1CCNC[C@@H]1Nc1cncc(-c2cnc3ccccn23)n1 [Example 29, 6-imidazo[1,2-a]pyridin-3-yl-N-[(3S,4S)-4-methoxypiperidin-3-yl]pyrazin-2-amine] |
| 3.18 nM | 167 nM | – | – | C[C@@H]1C[C@@H](Nc2cncc(-c3cnc4ccccn34)n2)CN1 [Example 144, 6-imidazo[1,2-a]pyridin-3-yl-N-[(3R,5R)-5-methylpyrrolidin-3-yl]pyrazin-2-amine] |
| 40.8 nM | 2010 nM | – | – | c1ncc(-n2cnc3cnc(N4CCOCC4)cc32)nc1N[C@@H]1CCCNC1 [Example 272, 6-[6-(morpholin-4-yl)-1H-imidazo[4,5-c]pyridin-1-yl]-N-[(3R)-piperidin-3-yl]pyrazin-2-amine] |
| 3.05 nM | 4.82 nM | – | – | c1ccn2c(-c3cncc(N[C@H]4CNC[C@H]4C4CC4)n3)cnc2c1 [Example 197, N-[(3R,4R)-4-cyclopropylpyrrolidin-3-yl]-6-(imidazo[1,2-a]pyridin-3-yl)pyrazin-2-amine] |
| 4.4 nM | 9.75 nM | – | – | C[C@@H]1CNC[C@@H]1Nc1cncc(-c2cnc3ccc(Cl)cn23)n1 [Example 229, 6-(6-chloroimidazo[1,2-a]pyridin-3-yl)-N-[(3R,4R)-4-methylpyrrolidin-3-yl]pyrazin-2-amine] |
| 6.5 nM | – | 24.5 nM | – | C[C@H]1NCCC[C@H]1Nc1cncc(-c2cnc3ccc(C(F)(F)F)cn23)n1 [Example 228, N-[(2R,3R)-2-methylpiperidin-3-yl]-6-[6-(trifluoromethyl)imidazo[1,2-a]pyridin-3-yl]pyrazin-2-amine] |
| 2.4 nM | – | 256 nM | – | Oc1ccn2c(-c3cncc(N[C@@H]4CCCNC4)n3)cnc2c1 [Example 137, 3-{6-[(3R)-piperidin-3-ylamino]pyrazin-2-yl}imidazo[1,2-a]pyridin-7-ol] |
| 72.2 nM | 201 nM | – | – | COC[C@@H]1C[C@@H](Nc2cncc(-c3cnc4cc(C)ccn34)n2)CN1 [Example 239, N-[(3R,5S)-5-(methoxymethyl)pyrrolidin-3-yl]-6-(7-methylimidazo[1,2-a]pyridin-3-yl)pyrazin-2-amine] |
| 4.86 nM | 139 nM | – | – | FC[C@@H]1CNC[C@@H]1Nc1cncc(-c2cnc3ccccn23)n1 [Example 130, N-[(3R,4R)-4-(fluoromethyl)pyrrolidin-3-yl]-6-imidazo[1,2-a]pyridin-3-ylpyrazin-2-amine] |
| 21.7 nM | 73.3 nM | – | – | COC[C@@H]1C[C@@H](Nc2cncc(-c3cnc4ccccn34)n2)CN1 [Example 157, 6-(imidazo[1,2-a]pyridin-3-yl)-N-[(3R,5S)-5-(methoxymethyl)pyrrolidin-3-yl]pyrazin-2-amine] |
| 17.9 nM | – | 64.9 nM | – | C[C@@H]1NCCC[C@H]1Nc1cncc(-c2cnc3ccc(Cl)cn23)n1 [Example 225, 6-(6-chloroimidazo[1,2-a]pyridin-3-yl)-N-[(2S,3R)-2-methylpiperidin-3-yl]pyrazin-2-amine] |
| 65.8 nM | 1480 nM | – | – | CCOc1ccc2ncn(-c3cncc(N[C@H]4CN[C@H](COC)C4)n3)c2c1 [Example 268, 6-(6-ethoxy-1H-benzimidazol-1-yl)-N-[(3R,5S)-5-(methoxymethyl)pyrrolidin-3-yl]pyrazin-2-amine] |
| 12.6 nM | 166 nM | – | – | CCOc1cc2c(cn1)ncn2-c1cncc(N[C@@H]2CCCNC2)n1 [Example 257, 6-(6-ethoxy-1H-imidazo[4,5-c]pyridin-1-yl)-N-[(3R)-piperidin-3-yl]pyrazin-2-amine] |

| Compound | Ki (CHK1 (kinase domain)) | EC50 (Mia Paca-2 cells; [1]) | EC50 (Mia Paca-2 cells; [2]) | EC50 (Mia Paca-2 cells; Mia Paca-2 cells (entries marked *)) |
| --- | --- | --- | --- | --- |
| COc1ccn2c(-c3cncc(N[C@H]4C5CCN(CC5)[C@H]4C)n3)cnc2c1 [Example 265, (2S,3S)-N-[6-(7-methoxyimidazo[1,2-a]pyridin-3-yl)pyrazin-2-yl]-2-methyl-1-azabicyclo[2.2.2]octan-3-amine] | 5.37 nM | 244 nM | – | – |
| c1ccn2c(-c3cncc(N[C@@H]4C[C@@H]5CN[C@H]4C5)n3)cnc2c1 [Example 123, (1S,4R,6R)-N-(6-imidazo[1,2-a]pyridin-3-ylpyrazin-2-yl)-2-azabicyclo[2.2.1]heptan-6-amine] | 3.22 nM | 22.9 nM | – | – |
